Values of other authors in patent publication CN102028697A, “含非离子表面活性剂的拉坦前列素滴眼液及制备方法” (SHANGHAI SINE PHARMACEUTICAL CO Ltd, priority 2009, dated 2011).

Tests used:
[1] = in water

- solubility [1]: 几乎不溶
- permissible time at 40℃: ≤ 8 days
Structure (SMILES): CC(C)OC(=O)CCC/C=C\C[C@@H]1[C@@H](CC[C@@H](O)CCc2ccccc2)[C@H](O)C[C@@H]1O [拉坦前列素]
